The results in this text go back to patent US20080176854A1, “Nitro-Substituted Phenyl-Piperazine Compounds, Their Preparation and Use in Medicaments” (Laboratorios Del Dr. Esteve S.A, priority 2004, published 2008).

The target in this assay is T1, 5HT6-human recombinant receptor (Homo sapiens, UniProt P50406).
T1 construct: purchased Receptor Biology; host or cells: HEK-293 cell membranes
Briefly: Binding to serotonin receptor 5-HT6 ([3H]-LSD radioligand displacement). To be noted: membranes of HEK-293 cells expressing the receptor; radioligand [3H]-LSD 2.7 nM; 60 minutes at 37° C; triplicate. How it is done: I) Binding to Serotonin Receptor 5-HT6
Cell membranes of HEK-293 cells expressing the 5HT6-human recombinant receptor were supplied by Receptor Biology. In said membranes the receptor concentration is 2.18 pmol/mg protein and the protein concentration is 9.17 mg/ml. The experimental protocol follows the method of B. L. Roth et al. [B. L. Roth, S. C. Craigo, M. S. Choudhary, A. Uluer, F. J. Monsma, Y. Shen, H. Y. Meltzer, D. R. Sibley: Binding of Typical and Atypical Antipsychotic Agents to 5-Hydroxytryptamine-6 and Hydroxytryptamine-7 Receptors. The Journal of Pharmacology and Experimental Therapeutics, 1994, 268, 1403] with the following slight changes. The respective part of the literature description is hereby incorporated by reference and forms part of the disclosure.
The commercial membrane is diluted (1:40 dilution) with the binding buffer: 50 mM Tris-HCl, 10 mM MgCl2, 0.5 mM EDTA (pH 7.4). The radioligand used is [^3H]-LSD at a concentration of 2.7 nM with a final volume of 200 μl. Incubation is initiated by adding 100 μl of membrane suspension, (≈22.9 μg membrane protein), and is prolonged for 60 minutes at a temperature of 37° C. The incubation is ended by fast filtration in a Brandel Cell Harvester through fiber glass filters made by Schleicher & Schuell G F 3362 pretreated with a solution of polyethylenimine at 0.5%. The filters are washed three times with three milliliters of buffer Tris-HCl 50 mM pH 7.4. The filters are transferred to flasks and 5 ml of Ecoscint H liquid scintillation cocktail are added to each flask. The flasks are allowed to reach equilibrium for several hours before counting with a Wallac Winspectral 1414 scintillation counter. Non-specific binding is determined in the presence of 100 μM of serotonin. Tests were made in triplicate. The inhibition constants (Ki, nM) were calculated by non-linear regression analysis using the program EBDA/LIGAND described in Munson and Rodbard, Analytical Biochemistry, 1980, 107, 220, the respective part of which is hereby incorporated by reference and forms part of the disclosure.
The binding of the nitro-substituted phenyl-piperazine compounds to the 5-HT6 receptor was determined as described above.

T1 sequence (P50406 whole entry): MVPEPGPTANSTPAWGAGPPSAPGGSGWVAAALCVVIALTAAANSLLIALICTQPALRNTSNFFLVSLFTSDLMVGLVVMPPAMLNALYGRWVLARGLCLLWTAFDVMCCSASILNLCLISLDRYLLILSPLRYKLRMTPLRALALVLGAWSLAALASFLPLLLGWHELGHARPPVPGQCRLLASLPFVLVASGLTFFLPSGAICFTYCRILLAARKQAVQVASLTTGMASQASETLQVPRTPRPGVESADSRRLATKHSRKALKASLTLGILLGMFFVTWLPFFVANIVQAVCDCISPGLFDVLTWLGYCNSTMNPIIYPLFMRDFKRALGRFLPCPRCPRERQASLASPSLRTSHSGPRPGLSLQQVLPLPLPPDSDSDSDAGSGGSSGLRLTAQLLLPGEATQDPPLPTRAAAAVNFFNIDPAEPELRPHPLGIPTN

For `CC(Nc1cc(N2CCN(C)CC2)ccc1[N+](=O)[O-])c1ccccc1` (stereo not drawn) [Example 59, [5-(4-Methyl-piperazin-1-yl)-2-nitro-phenyl]-(1-phenyl-ethyl)-amine], the Ki was 11.9 nM. Regarding `Cc1cc(C)n(-c2cc(N3CCN(C)CC3)ccc2[N+](=O)[O-])n1` [Example 21, 1-[3-(3,5-Dimethyl-pyrazol-1-yl)-4-nitro-phenyl]-4-methyl-piperazine], the Ki came to 250 nM. For the compound `CN1CCN(c2ccc([N+](=O)[O-])c(-n3nc(-c4ccccc4)c4ccccc4c3=O)c2)CC1` [Example 16, 2-[5-(4-Methyl-piperazin-1-yl)-2-nitro-phenyl]-4-phenyl-2H-phthalazin-1-one], the Ki was 732 nM.

In the case of `COc1ccccc1OCCNc1cc(N2CCN(C)CC2)ccc1[N+](=O)[O-]` [Example 51, [2-(2-Methoxy-phenoxy)-ethyl]-[5-(4-methyl-piperazin-1-yl)-2-nitro-phenyl]-amine], the Ki was found to be 19.1 nM. The same measure for `Cc1ccccc1OCCNc1cc(N2CCNCC2)ccc1[N+](=O)[O-]` [Example 13, (2-Nitro-5-piperazin-1-yl-phenyl)-(2-o-tolyloxy-ethyl)-amine]: 162 nM; for `CN1CCN(c2ccc([N+](=O)[O-])c(NCc3ccc(F)cc3)c2)CC1` [Example 2, (4-Fluoro-benzyl)-[5-(4-methyl-piperazin-1-yl)-2-nitro-phenyl]-amine]: 172 nM; for `CN1CCN(c2ccc([N+](=O)[O-])c(NCc3ccco3)c2)CC1` [Example 11, Furan-2-ylmethyl-[5-(4-methyl-piperazin-1-yl)-2-nitro-phenyl]-amine]: 61.2 nM. In the case of `Cc1ccccc1OCCNc1cc(N2CCN(C)CC2)ccc1[N+](=O)[O-]` [Example 55, [5-(4-Methyl-piperazin-1-yl)-2-nitro-phenyl]-(2-o-tolyloxy-ethyl)-amine], the Ki is 26.1 nM. As to `O=[N+]([O-])c1ccc(N2CCNCC2)cc1N1CCN(Cc2ccccc2)CC1` [Example 27, 1-Benzyl-4-(2-nitro-5-piperazin-1-yl-phenyl)-piperazine], the Ki was found to be 3780 nM. Consider `Cc1cc(C)n(-c2cc(N3CCNCC3)ccc2[N+](=O)[O-])n1` [Example 32, 1-[3-(3,5-Dimethyl-pyrazol-1-yl)-4-nitro-phenyl]-piperazine], for which the Ki was 482 nM. As for `CC1CN(c2ccc([N+](=O)[O-])c(NCCOc3ccc(Cl)cc3)c2)CC(C)N1` (stereo not drawn) [Example 17, [2-(4-Chloro-phenoxy)-ethyl]-[5-(3,5-dimethyl-piperazin-1-yl)-2-nitro-phenyl]-amine], the Ki worked out at 5000 nM. Regarding `O=[N+]([O-])c1ccc(N2CCNCC2)cc1NCc1ccccc1` [Example 22, Benzyl-(2-nitro-5-piperazin-1-yl-phenyl)-amine], the inhibitory constant (Ki) is 27.5 nM.

Regarding `O=[N+]([O-])c1ccc(N2CCNCC2)cc1NCc1ccc(Cl)cc1` [Example 52, (4-Chloro-benzyl)-(2-nitro-5-piperazin-1-yl-phenyl)-amine], the Ki was 8.3 nM. As to `COc1ccc(OCCNc2cc(N3CCN(C)CC3)ccc2[N+](=O)[O-])cc1` [Example 46, [2-(4-Methoxy-phenoxy)-ethyl]-[5-(4-methyl-piperazin-1-yl)-2-nitro-phenyl]-amine], the Ki turned out to be 245 nM. With `O=[N+]([O-])c1ccc(N2CCNCC2)cc1NCCOc1ccc(Cl)cc1` [Example 58, [2-(4-Chloro-phenoxy)-ethyl]-(2-nitro-5-piperazin-1-yl-phenyl)-amine], the Ki was 290 nM.

Turning to `O=[N+]([O-])c1ccc(N2CCN(Cc3ccccc3)CC2)cc1NCc1ccccc1` [Example 53, Benzyl-[5-(4-benzyl-piperazin-1-yl)-2-nitro-phenyl]-amine], the Ki was 34.3 nM. For `CN1CCN(c2ccc([N+](=O)[O-])c(Nn3cccc3)c2)CC1` [Example 5, [5-(4-Methyl-piperazin-1-yl)-2-nitro-phenyl]-pyrrol-1-yl-amine] the value was 481 nM. `CN1CCN(c2ccc([N+](=O)[O-])c(Oc3ccccc3)c2)CC1` [Example 7, 1-Methyl-4-(4-nitro-3-phenoxy-phenyl)-piperazine]: the Ki came out at 26.6 nM. Take `CN1CCN(c2ccc([N+](=O)[O-])c(NCc3cccnc3)c2)CC1` [Example 24, [5-(4-Methyl-piperazin-1-yl)-2-nitro-phenyl]-pyridin-3-ylmethyl-amine]: the Ki is 1270 nM. With `O=[N+]([O-])c1ccc(N2CCNCC2)cc1NCCOc1ccccc1` [Example 30, (2-Nitro-5-piperazin-1-yl-phenyl)-(2-phenoxy-ethyl)-amine], the inhibition constant Ki stood at 114 nM. The same measure for `CN1CCN(c2ccc([N+](=O)[O-])c(NC(c3ccccc3)c3ccccc3)c2)CC1` [Example 29, Benzhydryl-[5-(4-methyl-piperazin-1-yl)-2-nitro-phenyl]-amine]: 4490 nM; for `CN1CCN(c2ccc([N+](=O)[O-])c(NCCc3ccccc3)c2)CC1` [Example 23, [5-(4-Methyl-piperazin-1-yl)-2-nitro-phenyl]-phenethyl-amine]: 118 nM; for `CN1CCN(c2ccc([N+](=O)[O-])c(NCc3ccc(Cl)cc3)c2)CC1` [Example 56, (4-Chloro-benzyl)-[5-(4-methyl-piperazin-1-yl)-2-nitro-phenyl]-amine]: 59 nM. As to `CN1CCN(c2ccc([N+](=O)[O-])c(-n3nc(-c4ccccc4)c4ccccc4c3=O)c2)CC1` [Example 31, 2-[5-(4-Methyl-piperazin-1-yl)-2-nitro-phenyl]-4-phenyl-2H-phthalazin-1-one], the Ki stood at 1710 nM. For `O=[N+]([O-])c1ccc(N2CCNCC2)cc1NCc1cccnc1` [Example 26, (2-Nitro-5-piperazin-1-yl-phenyl)-pyridin-3-ylmethyl-amine] the value was 1510 nM. For `O=[N+]([O-])c1ccc(N2CCNCC2)cc1NCc1ccco1` [Example 57, Furan-2-ylmethyl-(2-nitro-5-piperazin-1-yl-phenyl)-amine], the Ki was 25 nM. In the case of `O=[N+]([O-])c1ccc(N2CCN(CCO)CC2)cc1NCCc1ccccc1` [Example 12, 2-[4-(4-Nitro-3-phenethylamino-phenyl)-piperazin-1-yl]-ethanol], the Ki worked out at 6330 nM.

As for `CN1CCN(c2ccc([N+](=O)[O-])c(N3CCOCC3)c2)CC1` [Example 15, 4-[5-(4-Methyl-piperazin-1-yl)-2-nitro-phenyl]-morpholine], the Ki was 2710 nM. Consider `CN1CCN(c2ccc([N+](=O)[O-])c(NCCOc3ccc(C(C)(C)C)cc3)c2)CC1` [Example 45, [2-(4-tert-Butyl-phenoxy)-ethyl]-[5-(4-methyl-piperazin-1-yl)-2-nitro-phenyl]-amine], for which the Ki stood at 80.3 nM. For `O=[N+]([O-])c1ccc(N2CCNCC2)cc1NCCc1ccccc1` [Example 33, (2-Nitro-5-piperazin-1-yl-phenyl)-phenethyl-amine], the Ki was 33.1 nM.

What is called Ki is a measure of affinity in units of concentration, obtained from inhibition or displacement.
